{
  "source": "paper PMC7026418",
  "about": "“The kinase polypharmacology landscape of clinical PARP inhibitors” (Scientific Reports, 2020)",
  "assay_in_all_cases": "biochemical",
  "set-up_in_all_cases": "DiscoveRx KINOMEscan active site-directed competition binding; percent of control kinase bound to immobilised ligand",
  "key": {"[1]": {"target": "T1, MAP4K2 (Homo sapiens, UniProt Q12851)", "T1 sequence (Q12851 1-820)": "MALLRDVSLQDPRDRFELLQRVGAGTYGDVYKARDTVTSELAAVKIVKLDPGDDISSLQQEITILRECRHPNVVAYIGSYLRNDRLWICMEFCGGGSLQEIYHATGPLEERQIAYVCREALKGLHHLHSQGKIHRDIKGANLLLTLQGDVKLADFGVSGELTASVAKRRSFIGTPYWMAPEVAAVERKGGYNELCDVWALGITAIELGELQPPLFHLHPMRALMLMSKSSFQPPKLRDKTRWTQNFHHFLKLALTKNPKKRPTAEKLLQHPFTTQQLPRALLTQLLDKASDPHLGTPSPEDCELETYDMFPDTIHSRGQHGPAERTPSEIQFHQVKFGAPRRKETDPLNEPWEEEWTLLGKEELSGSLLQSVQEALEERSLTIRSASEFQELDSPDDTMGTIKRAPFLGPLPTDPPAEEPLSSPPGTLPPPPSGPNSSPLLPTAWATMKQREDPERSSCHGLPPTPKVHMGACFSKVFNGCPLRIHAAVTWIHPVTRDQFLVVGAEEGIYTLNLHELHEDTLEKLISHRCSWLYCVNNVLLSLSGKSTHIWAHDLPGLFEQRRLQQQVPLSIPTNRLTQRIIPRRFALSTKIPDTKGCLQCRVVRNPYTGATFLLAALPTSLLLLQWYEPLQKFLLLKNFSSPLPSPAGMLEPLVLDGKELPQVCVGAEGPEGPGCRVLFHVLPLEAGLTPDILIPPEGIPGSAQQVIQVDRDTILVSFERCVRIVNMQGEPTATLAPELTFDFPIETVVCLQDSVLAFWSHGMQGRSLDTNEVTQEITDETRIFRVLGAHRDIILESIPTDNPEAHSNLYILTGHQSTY"}, "[2]": {"target": "HIPK1 (Homo sapiens, UniProt Q86Z02)", "sequence (Q86Z02 whole entry)": "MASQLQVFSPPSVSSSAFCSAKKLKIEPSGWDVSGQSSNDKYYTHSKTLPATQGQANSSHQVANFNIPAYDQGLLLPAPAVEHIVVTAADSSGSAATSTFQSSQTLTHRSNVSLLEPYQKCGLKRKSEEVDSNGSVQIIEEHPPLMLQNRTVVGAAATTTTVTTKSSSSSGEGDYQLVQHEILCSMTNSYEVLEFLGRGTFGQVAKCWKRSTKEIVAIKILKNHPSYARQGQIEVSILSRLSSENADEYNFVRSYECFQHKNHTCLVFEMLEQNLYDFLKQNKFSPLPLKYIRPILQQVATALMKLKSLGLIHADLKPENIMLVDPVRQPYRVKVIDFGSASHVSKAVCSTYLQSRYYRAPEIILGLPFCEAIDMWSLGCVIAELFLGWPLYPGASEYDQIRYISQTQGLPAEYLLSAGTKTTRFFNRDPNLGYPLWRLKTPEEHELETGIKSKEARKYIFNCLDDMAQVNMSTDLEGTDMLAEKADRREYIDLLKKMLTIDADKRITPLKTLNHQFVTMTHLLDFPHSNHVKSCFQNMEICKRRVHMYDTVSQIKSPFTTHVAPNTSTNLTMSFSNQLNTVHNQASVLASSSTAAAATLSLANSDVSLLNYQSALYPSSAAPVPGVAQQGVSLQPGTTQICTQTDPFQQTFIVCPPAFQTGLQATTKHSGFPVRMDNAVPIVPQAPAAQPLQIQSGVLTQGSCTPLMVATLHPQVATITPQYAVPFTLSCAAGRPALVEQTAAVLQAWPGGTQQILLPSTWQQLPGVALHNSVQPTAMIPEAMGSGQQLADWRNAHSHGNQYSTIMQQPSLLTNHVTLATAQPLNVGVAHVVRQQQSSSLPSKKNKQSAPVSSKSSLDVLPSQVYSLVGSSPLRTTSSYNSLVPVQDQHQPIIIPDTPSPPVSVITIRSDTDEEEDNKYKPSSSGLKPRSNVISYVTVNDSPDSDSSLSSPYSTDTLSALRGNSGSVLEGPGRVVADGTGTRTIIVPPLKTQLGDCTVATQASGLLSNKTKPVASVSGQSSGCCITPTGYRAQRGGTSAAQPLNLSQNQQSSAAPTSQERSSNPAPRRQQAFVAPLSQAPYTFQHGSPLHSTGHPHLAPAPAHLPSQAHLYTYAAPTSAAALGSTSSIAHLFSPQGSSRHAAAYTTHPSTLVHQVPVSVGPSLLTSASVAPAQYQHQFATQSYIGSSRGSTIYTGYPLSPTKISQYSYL"}, "[3]": {"target": "MKNK1 (Homo sapiens, UniProt Q9BUB5)", "sequence (Q9BUB5 whole entry)": "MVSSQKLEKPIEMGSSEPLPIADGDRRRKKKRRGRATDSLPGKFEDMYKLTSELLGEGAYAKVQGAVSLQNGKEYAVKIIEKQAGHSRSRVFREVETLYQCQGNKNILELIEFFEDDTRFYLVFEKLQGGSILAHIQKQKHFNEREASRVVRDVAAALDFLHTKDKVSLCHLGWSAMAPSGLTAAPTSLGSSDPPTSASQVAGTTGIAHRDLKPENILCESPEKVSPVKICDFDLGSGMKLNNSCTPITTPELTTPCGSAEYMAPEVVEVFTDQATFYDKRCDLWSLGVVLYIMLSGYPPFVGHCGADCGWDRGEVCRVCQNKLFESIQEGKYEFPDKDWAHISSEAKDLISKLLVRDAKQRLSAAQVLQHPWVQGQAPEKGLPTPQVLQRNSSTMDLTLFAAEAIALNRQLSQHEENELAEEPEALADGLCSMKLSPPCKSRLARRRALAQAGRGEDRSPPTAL"}, "[4]": {"target": "T2, IRAK4 (Homo sapiens, UniProt Q9NWZ3)", "T2 sequence (Q9NWZ3 1-460)": "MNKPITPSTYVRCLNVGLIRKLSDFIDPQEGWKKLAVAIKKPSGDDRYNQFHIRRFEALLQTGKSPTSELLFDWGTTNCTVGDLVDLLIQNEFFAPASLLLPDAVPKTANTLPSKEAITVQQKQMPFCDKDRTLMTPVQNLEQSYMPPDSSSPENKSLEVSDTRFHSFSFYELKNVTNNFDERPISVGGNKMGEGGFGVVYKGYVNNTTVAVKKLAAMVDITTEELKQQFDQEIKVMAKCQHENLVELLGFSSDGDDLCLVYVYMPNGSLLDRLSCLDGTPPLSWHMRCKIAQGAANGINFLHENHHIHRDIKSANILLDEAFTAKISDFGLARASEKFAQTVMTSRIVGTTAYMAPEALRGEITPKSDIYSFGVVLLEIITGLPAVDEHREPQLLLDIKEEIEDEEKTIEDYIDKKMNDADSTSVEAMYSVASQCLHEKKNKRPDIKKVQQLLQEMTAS"}, "[5]": {"target": "PIK3CA(C420R) (Homo sapiens, UniProt P42336, C420R)", "sequence (P42336 whole entry C420R)": "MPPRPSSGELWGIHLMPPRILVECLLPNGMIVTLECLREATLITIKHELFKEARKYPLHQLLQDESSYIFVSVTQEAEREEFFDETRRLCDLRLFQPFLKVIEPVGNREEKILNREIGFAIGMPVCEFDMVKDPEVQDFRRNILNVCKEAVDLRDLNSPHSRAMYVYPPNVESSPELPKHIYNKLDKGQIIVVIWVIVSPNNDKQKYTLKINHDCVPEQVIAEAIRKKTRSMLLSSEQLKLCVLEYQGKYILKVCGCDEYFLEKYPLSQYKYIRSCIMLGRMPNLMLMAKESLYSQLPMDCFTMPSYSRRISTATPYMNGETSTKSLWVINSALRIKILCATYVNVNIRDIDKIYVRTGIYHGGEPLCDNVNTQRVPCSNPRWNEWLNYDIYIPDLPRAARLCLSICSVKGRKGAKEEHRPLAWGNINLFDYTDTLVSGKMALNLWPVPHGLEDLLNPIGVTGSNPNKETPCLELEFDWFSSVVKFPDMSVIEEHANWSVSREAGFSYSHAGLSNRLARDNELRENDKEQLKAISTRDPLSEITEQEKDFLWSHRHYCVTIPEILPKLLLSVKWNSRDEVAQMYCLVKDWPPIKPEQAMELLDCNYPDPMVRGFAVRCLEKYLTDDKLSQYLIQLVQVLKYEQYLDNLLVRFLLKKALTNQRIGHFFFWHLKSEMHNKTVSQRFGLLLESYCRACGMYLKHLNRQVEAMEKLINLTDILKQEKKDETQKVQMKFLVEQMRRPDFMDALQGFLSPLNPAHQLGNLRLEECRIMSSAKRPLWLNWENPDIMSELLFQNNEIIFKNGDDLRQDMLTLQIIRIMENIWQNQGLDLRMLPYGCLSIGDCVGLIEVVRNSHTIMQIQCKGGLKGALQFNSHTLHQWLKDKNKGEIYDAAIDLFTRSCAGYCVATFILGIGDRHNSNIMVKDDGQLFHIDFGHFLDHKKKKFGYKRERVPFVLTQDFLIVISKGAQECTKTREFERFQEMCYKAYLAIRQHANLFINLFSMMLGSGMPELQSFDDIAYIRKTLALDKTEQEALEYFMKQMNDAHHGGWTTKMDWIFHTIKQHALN"}, "[6]": {"target": "T3, MLCK (Homo sapiens, UniProt Q32MK0)", "T3 construct": "gene MYLK3", "T3 sequence (Q32MK0 1-819)": "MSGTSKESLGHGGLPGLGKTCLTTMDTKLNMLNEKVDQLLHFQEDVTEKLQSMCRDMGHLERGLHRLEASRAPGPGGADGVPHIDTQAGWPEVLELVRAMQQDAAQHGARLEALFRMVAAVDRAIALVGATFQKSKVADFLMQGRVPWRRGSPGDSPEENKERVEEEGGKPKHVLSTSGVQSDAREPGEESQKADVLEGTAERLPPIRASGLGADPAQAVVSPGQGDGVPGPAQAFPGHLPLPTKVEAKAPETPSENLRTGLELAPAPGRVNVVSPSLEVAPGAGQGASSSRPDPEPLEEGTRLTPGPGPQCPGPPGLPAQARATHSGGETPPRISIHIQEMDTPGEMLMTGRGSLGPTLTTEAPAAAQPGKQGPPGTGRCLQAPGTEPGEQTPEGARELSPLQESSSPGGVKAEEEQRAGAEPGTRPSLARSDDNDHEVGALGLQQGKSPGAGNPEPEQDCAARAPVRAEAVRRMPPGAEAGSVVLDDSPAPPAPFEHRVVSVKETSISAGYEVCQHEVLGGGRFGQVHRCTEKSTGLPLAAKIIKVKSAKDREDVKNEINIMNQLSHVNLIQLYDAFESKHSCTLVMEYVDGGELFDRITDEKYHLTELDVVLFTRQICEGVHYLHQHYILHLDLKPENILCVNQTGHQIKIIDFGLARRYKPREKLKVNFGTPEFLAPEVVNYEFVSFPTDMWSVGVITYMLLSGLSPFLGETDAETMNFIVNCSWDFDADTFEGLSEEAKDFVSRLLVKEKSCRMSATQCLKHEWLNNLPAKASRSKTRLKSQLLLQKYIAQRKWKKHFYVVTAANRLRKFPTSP"}, "[7]": {"settings": "read-out: Talazoparib (BMN 673) / %Ctrl @ 10000nM"}, "[8]": {"settings": "read-out: Olaparib / %Ctrl @ 10000nM"}, "[9]": {"settings": "read-out: Niraparib (MK-4827) / %Ctrl @ 10000nM"}, "[10]": {"settings": "read-out: Rucaparib / %Ctrl @ 10000nM, binding competition, % of control"}},
  "note": "Where two headings read alike, the source gives them in different places.",
  "data": [
    {"compound": "Cn1ncnc1[C@H]1c2n[nH]c(=O)c3cc(F)cc(c23)N[C@@H]1c1ccc(F)cc1", "note": "[Talazoparib]", "values": [
      {"measurement": "percent of control binding at 10 µM", "setting": "[1]; [7]", "value": 94, "unit": "%"},
      {"measurement": "percent of control binding at 10 µM", "setting": "[2]; [7]", "value": 100, "unit": "%"},
      {"measurement": "percent of control binding at 10 µM", "setting": "[3]; [7]", "value": 100, "unit": "%"},
      {"measurement": "percent of control binding at 10 µM", "setting": "[4]; [7]", "value": 85, "unit": "%"},
      {"measurement": "percent of control binding at 10 µM", "setting": "[5]; [7]", "value": 100, "unit": "%"},
      {"measurement": "percent of control binding at 10 µM", "setting": "[6]; [7]", "value": 98, "unit": "%"}
    ]},
    {"compound": "O=C(c1cc(Cc2n[nH]c(=O)c3ccccc23)ccc1F)N1CCN(C(=O)C2CC2)CC1", "note": "[Olaparib]", "values": [
      {"measurement": "percent of control binding at 10 µM", "setting": "[1]; [8]", "value": 97, "unit": "%"},
      {"measurement": "percent of control binding at 10 µM", "setting": "[2]; [8]", "value": 87, "unit": "%"},
      {"measurement": "percent of control binding at 10 µM", "setting": "[3]; [8]", "value": 82, "unit": "%"},
      {"measurement": "percent of control binding at 10 µM", "setting": "[4]; [8]", "value": 88, "unit": "%"},
      {"measurement": "percent of control binding at 10 µM", "setting": "[6]; [8]", "value": 95, "unit": "%"}
    ]},
    {"compound": "NC(=O)c1cccc2cn(-c3ccc([C@@H]4CCCNC4)cc3)nc12", "note": "[Niraparib]", "values": [
      {"measurement": "percent of control binding at 10 µM", "setting": "[1]; [9]", "value": 83, "unit": "%"},
      {"measurement": "percent of control binding at 10 µM", "setting": "[2]; [9]", "value": 0.95, "unit": "%"},
      {"measurement": "percent of control binding at 10 µM", "setting": "[3]; [9]", "value": 100, "unit": "%"},
      {"measurement": "percent of control binding at 10 µM", "setting": "[4]; [9]", "value": 99, "unit": "%"},
      {"measurement": "percent of control binding at 10 µM", "setting": "[5]; [9]", "value": 98, "unit": "%"},
      {"measurement": "percent of control binding at 10 µM", "setting": "[6]; [9]", "value": 92, "unit": "%"}
    ]},
    {"compound": "CNCc1ccc(-c2[nH]c3cc(F)cc4c3c2CCNC4=O)cc1", "note": "[Rucaparib]", "values": [
      {"measurement": "percent of control binding at 10 µM", "setting": "[1]; [10]", "value": 79, "unit": "%"},
      {"measurement": "percent of control binding at 10 µM", "setting": "[2]; [10]", "value": 5.4, "unit": "%"},
      {"measurement": "percent of control binding at 10 µM", "setting": "[3]; [10]", "value": 97, "unit": "%"},
      {"measurement": "percent of control binding at 10 µM", "setting": "[4]; [10]", "value": 81, "unit": "%"},
      {"measurement": "percent of control binding at 10 µM", "setting": "[5]; [10]", "value": 74, "unit": "%"},
      {"measurement": "percent of control binding at 10 µM", "setting": "[6]; [10]", "value": 53, "unit": "%"}
    ]}
  ]
}
